In patent US12459951B2, “Compounds that interact with RAS superfamily proteins for treatment of cancers, inflammatory diseases, rasopathies, and fibrotic disease” (SHY Therapeutics, LLC, priority 2022, dated 2025):

Experiments:
[1] = test system: KRas G12D mutant; assay: Ras GTP Binding Domain Inhibition Assay (Ras Superfamily Assay); settings: at 20 μM; for KRas G12D mutant + SOS: % inh.: with SOS; for KRas G12D mutant: % inh.: without SOS
How it was run: (§1)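 His-tagged GTPases immobilised on nickel-coated plates, pre-incubated with compound (20 μM single point, or serial dilution for IC50) 3 h at room temperature, with or without 10-30 μg/mL Sos (residues 556-1049) in the final hour. Bound Cy3- or Cy5-GTP (100 nM, 45 min) measured by fluorescence after washing.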

[2] = biological target: T1, Rac-1 (Homo sapiens, UniProt P63000); assay: as above; settings: read-out: Rac-1: % inh.
T1 construct: made in house
How it was run: as §1

[3] = test system: KRas wild type; assay: as above; settings: at 20 μM; for KRas wild type + SOS: % inh.: with SOS; for KRas wild type: % inh.: without SOS
How it was run: as §1

[4] = test system: Erk1/2 phosphorylation; assay: Erk1/2 Phosphorylation Assay (western blot), Panc-1; assay type: cell-based, human; settings: at 10 μM, * = activation
How it was run: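 KRas G12D Panc-1 cells were treated 6 h at 37° C with compound at 10 μM or serial dilutions for IC50 (0.3% DMSO). In method 1, cells were serum-starved overnight (0.5% FBS) and then given 1.5 ng/ml EGF for 15 min. In method 2, cells stayed in 10% FBS without stimulation. Lysate phospho-Erk1/2 (Thr202/Tyr204) was read by western blot.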

Cc1c(-c2ccn(C)n2)cn2nc(-c3nccn3C)nc(Nc3ccc(-c4ccccn4)cn3)c12 [Compound 249, N-([2,3′-Bipyridin]-6′-yl)-5-methyl-2-(1-methyl-1H-imidazol-2-yl)-6-(1-methyl-1H-pyrazol-3-yl)pyrrolo[2,1-f][1,2,4]triazin-4-amine]
KRas G12D mutant + SOS: % inh. [1]: C (C = 50-75% inhibition) | KRas G12D mutant: % inh. [1]: C (C = 50-75% inhibition) | inhibition at 20 µM [2]: 76 to 100% | KRas wild type + SOS: % inh. [3]: C (C = 50-75% inhibition) | KRas wild type: % inh. [3]: C (C = 50-75% inhibition) | % inh of Erk1/2 phosphorylation in Panc-1 [4]: D* (85-100% activation)

Cc1c(-c2ccn(C)n2)cn2nc(-c3nccn3C)nc(Nc3cc(-c4ccccn4)[nH]n3)c12 [Compound 265, 5-Methyl-2-(1-methyl-1H-imidazol-2-yl)-6-(1-methyl-1H-pyrazol-3-yl)-N-(5-(pyridin-2-yl)-1H-pyrazol-3-yl)pyrrolo[2,1-f][1,2,4]triazin-4-amine]
KRas G12D mutant + SOS: % inh. [1]: D (D = 76-100% inhibition) | KRas G12D mutant: % inh. [1]: C (C = 50-75% inhibition) | inhibition at 20 µM [2]: 76 to 100% | KRas wild type + SOS: % inh. [3]: D (D = 76-100% inhibition) | % inh of Erk1/2 phosphorylation in Panc-1 [4]: A* (1-25% activation)

Cc1c(-c2ccn(C)n2)cn2nc(-c3nccn3C)nc(-n3[nH]c(N)cc3=O)c12 [Compound 261, 5-Amino-2-(5-methyl-2-(1-methyl-1H-imidazol-2-yl)-6-(1-methyl-1H-pyrazol-3-yl)pyrrolo[2,1-f][1,2,4]triazin-4-yl)-1,2-dihydro-3H-pyrazol-3-one]
KRas G12D mutant + SOS: % inh. [1]: C (C = 50-75% inhibition) | KRas G12D mutant: % inh. [1]: D (D = 76-100% inhibition) | inhibition at 20 µM [2]: 76 to 100% | KRas wild type + SOS: % inh. [3]: C (C = 50-75% inhibition) | KRas wild type: % inh. [3]: C (C = 50-75% inhibition) | % inh of Erk1/2 phosphorylation in Panc-1 [4]: B (26-49% inhibition)

Cc1c(-c2ccn(C)n2)cn2nc(-c3nccn3C)nc(Nc3cc(-n4ccnc4)ccn3)c12 [Compound 245, N-(4-(1H-imidazol-1-yl)pyridin-2-yl)-5-methyl-2-(1-methyl-1H-imidazol-2-yl)-6-(1-methyl-1H-pyrazol-3-yl)pyrrolo[2,1-f][1,2,4]triazin-4-amine]
KRas G12D mutant + SOS: % inh. [1]: C (C = 50-75% inhibition) | KRas G12D mutant: % inh. [1]: C (C = 50-75% inhibition) | inhibition at 20 µM [2]: 50 to 75% | KRas wild type + SOS: % inh. [3]: B (B = 26-49% inhibition) | KRas wild type: % inh. [3]: A (A = 1-25% inhibition) | % inh of Erk1/2 phosphorylation in Panc-1 [4]: 0 (0% inhibition)

Cc1c(-c2ccn(C)n2)cn2nc(-c3nccn3C)nc(Nc3ccc(N4CCOCC4)cn3)c12 [Compound 247, 5-Methyl-2-(1-methyl-1H-imidazol-2-yl)-6-(1-methyl-1H-pyrazol-3-yl)-N-(5-morpholinopyridin-2-yl)pyrrolo[2,1-f][1,2,4]triazin-4-amine]
KRas G12D mutant + SOS: % inh. [1]: D (D = 76-100% inhibition) | KRas G12D mutant: % inh. [1]: D (D = 76-100% inhibition) | inhibition at 20 µM [2]: 76 to 100% | KRas wild type + SOS: % inh. [3]: D (D = 76-100% inhibition) | KRas wild type: % inh. [3]: D (D = 76-100% inhibition) | % inh of Erk1/2 phosphorylation in Panc-1 [4]: D* (85-100% activation)
